Results on 15 compounds are retold here after patent US20260263603A1, “PRODRUGS, PRODRUG COMPOSITIONS AND RELATED METHODS” (Praesidia Biotherapeutics Inc., priority 2023, published 2026).

SMILES strings stand for the structures. Where two headings read alike, the source gives them in different places. Bounds are passed on as bounds.

For data set [1] the following is noted: 37° C., 5 μM; for Chemical Stability, pH 4.5: pH 4.5 PBS; for Chemical Stability, pH 7.4: pH 7.4 PBS. The procedure:
Chemical stability of the prodrug compounds was tested at pH 4.5 and pH 7.4 (pH adjusted in phosphate buffer saline). Both buffer solutions at two pHs were prepared in house. 2 μL of 500 μM stock solution of the prodrug was added to each vial containing 198 μL PBS at pH 7.4 or pH 4.5 and mixed evenly. The assay was performed in duplicate. The final concentration of the test compound was 5 μM. samples were incubated at 37° C. at 600 rpm. […] Samples from individual vials were used for the different time points. The samples were vortexed for 2 minutes and centrifuged at 3,220 g for 5 minutes at 4° C. […] of the supernatant was transferred to a new plate.

Data set [2] in a line: in vitro. Particulars: for half-life at 5 μM: plasma; for Human Plasma Stability t½ min: 37° C., 5 μM, t½ > 240 min considered stable. On the procedure:
Rat and human plasma were obtained from qualified vendors. […] The assay was performed in duplicate.

Data set [3] in a line: in vitro. Particulars: 0.5 mg microsome/mL, 1 mM NADPH; for Rat liver microsomal stability (RLM) t½ min: 1 uM. The procedure:
Precipitated proteins were removed by centrifugation, followed by withdrawing and diluting the supernatant for analysis. Two positive controls and negative controls (without NADPH) were used in the study. All samples were analyzed in duplicates. LC/MS/MS was performed for detection and quantification of the test compounds. Linear regression was determined using the remaining percentage of the parent drug at each incubation time and t1/2 value was calculated.

Data set [4] in a line: in vitro. Particulars: human, Caco-2, pH 7.4.
Experimental: The objective of this study was to evaluate the bidirectional permeability and absorption mechanisms of the test compounds. CaCO-2 cells were cultured, and a monolayer was developed in-house in 96 well-plates over 18 days using standard protocol. The monolayer was tested for the integrity of the cell monolayer before using.
Test compounds were added to the transwell insert (apical compartment) to determine the rate of drug transport in the apical to basolateral direction. To determine the rate of drug transport in the basolateral to apical direction, the test compound was added to the receiver plate wells (basolateral compartment). Appropriate amount of HBSS (10 mM HEPES, pH 7.4) was added in both compartments for a final volume of 200 μL. The plates were incubated at 37° C. with shaking at 150 rpm on a rotary shaker for 2 hours. At the end of the transport period, 50 μL from the apical and basolateral wells were collected and 4 volume of cold acetonitrile containing internal standards (IS: 100 nM alprazolam, 200 nM labetalol, and 2 μM ketoprofen) was added to each sample to terminate the reaction. The samples were vortexed and centrifuged at 3,800 g for 20 minutes. An aliquot of 150 μL of the supernatant was used for LC/MS/MS analysis. All samples were analyzed in duplicates. Samples were analyzed through LC/MS/MS for estimating the permeability and efflux of the compounds across Caco-2 cell monolayers.
Data set [5] in a line: in vitro. Particulars: dog, MDCK.
Data set [6] has as its target Glucocorticoid receptor (GR) (Homo sapiens, UniProt P04150). The procedure:
Glucocorticoid receptor (GR) binding of prodrugs was determined using TR-FRET GR competitive binding assay. Three-point (0.1, 1 and 10 μM) binding was evaluated for each prodrug.

Glucocorticoid receptor (GR), sequence (P04150 whole entry, species assumed): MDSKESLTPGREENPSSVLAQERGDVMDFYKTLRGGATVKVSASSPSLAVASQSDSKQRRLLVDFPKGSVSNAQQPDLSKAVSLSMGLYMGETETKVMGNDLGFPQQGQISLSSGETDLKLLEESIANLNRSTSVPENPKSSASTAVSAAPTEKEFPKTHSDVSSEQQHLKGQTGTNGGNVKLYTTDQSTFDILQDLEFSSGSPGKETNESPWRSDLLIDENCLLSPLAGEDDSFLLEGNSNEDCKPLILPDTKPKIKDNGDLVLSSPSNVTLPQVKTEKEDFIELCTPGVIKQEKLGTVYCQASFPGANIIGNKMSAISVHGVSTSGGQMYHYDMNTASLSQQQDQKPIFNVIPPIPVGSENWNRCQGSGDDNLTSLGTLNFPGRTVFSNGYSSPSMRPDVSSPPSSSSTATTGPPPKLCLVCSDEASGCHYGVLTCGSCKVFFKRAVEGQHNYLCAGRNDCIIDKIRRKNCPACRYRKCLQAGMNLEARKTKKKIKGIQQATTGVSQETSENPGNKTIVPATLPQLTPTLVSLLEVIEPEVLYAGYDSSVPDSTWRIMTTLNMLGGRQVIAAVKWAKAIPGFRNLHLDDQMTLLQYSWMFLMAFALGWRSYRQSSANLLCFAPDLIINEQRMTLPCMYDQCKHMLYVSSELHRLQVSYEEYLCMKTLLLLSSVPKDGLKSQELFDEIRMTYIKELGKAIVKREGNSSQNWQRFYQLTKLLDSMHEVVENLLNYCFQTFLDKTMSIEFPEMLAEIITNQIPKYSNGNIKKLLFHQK

On to `C[C@@H]1C[C@H]2[C@@H]3CCC4=CC(=O)C=C[C@]4(C)[C@@]3(F)[C@@H](O)C[C@]2(C)[C@@]1(O)/C(CO)=N\NC(=O)C(N)Cc1ccccc1` (single isomer, unassigned) [Compound IIIA], for which, in data set [1], the “Chemical Stability, pH 4.5” value is “Yes” and the “Chemical Stability, pH 7.4” value is listed as “Yes”. For the same compound, in “in vitro [2]” (human), the half-life at 5 μM is over 240 min. Further, the half-life at 5 μM in the data set “in vitro [2]” (rat) is over 240 min. Besides, the “Rat liver microsomal stability (RLM) t½ min” value (“Rat liver microsomal stability” below) in the data set “in vitro [3]” is on record as 33 min.

Turning to `CCC(=O)N/N=C(\CO)[C@@]1(O)[C@H](C)C[C@H]2[C@@H]3CCC4=CC(=O)C=C[C@]4(C)[C@@]3(F)[C@@H](O)C[C@@]21C` [Compound II], in data set [1], the “Chemical Stability, pH 4.5” value is “Yes” and the “Chemical Stability, pH 7.4” value is “Yes”. The same compound displayed a half-life at 5 μM in “in vitro [2]” (human) of over 240 min.

Take `C[C@@H]1C[C@H]2[C@@H]3CCC4=C/C(=N\NC(=O)[C@@H](N)Cc5ccccc5)C=C[C@]4(C)[C@@]3(F)[C@@H](O)C[C@]2(C)[C@@]1(O)C(=O)CO` [Compound VIIB]: in data set [1], the “Chemical Stability, pH 4.5” value is on record as “Yes” and the “Chemical Stability, pH 7.4” value is recorded as “Yes”. This compound also registered a half-life at 5 μM in the data set “in vitro [2]” (rat) of over 240 min. In “in vitro [4]”, the apparent permeability from apical to basolateral (Papp A→B) at 2 h came to 0.13 ×10⁻⁶ cm/s and the Papp B→A at 2 h was found to be 9 ×10⁻⁶ cm/s. For the same compound, in the data set “in vitro [5]”, the Papp A→B amounted to 0.12 ×10⁻⁶ cm/s and the Papp B→A came to 0.87 ×10⁻⁶ cm/s.

With `CC(C)C(N)C(=O)N/N=C(/CO)[C@@]1(O)[C@H](C)C[C@H]2[C@@H]3CCC4=CC(=O)C=C[C@]4(C)[C@@]3(F)[C@@H](O)C[C@@]21C` (single isomer, unassigned) [Compound IVB], in data set [1], the “Chemical Stability, pH 4.5” value is “Yes”. The “Chemical Stability, pH 7.4” value in data set [1] is listed as “Yes”. The “Human Plasma Stability t½ min” value in “in vitro [2]” is over 240 min. Further, the “Rat liver microsomal stability” value in “in vitro [3]” is 108 min. Besides, the “GR Binding Data” value amounted to 3% in data set [6] (@ 0.1 uM), 16% in data set [6] (@ 1 uM) and 72% in data set [6] (@ 10 uM).

Consider `CC(C)C(N)C(=O)N/N=C1\C=C[C@@]2(C)C(=C1)CC[C@H]1[C@@H]3C[C@@H](C)[C@](O)(C(=O)CO)[C@@]3(C)C[C@H](O)[C@@]12F` (single isomer, unassigned) [Compound VB], for which, in data set [1], the “Chemical Stability, pH 4.5” value is listed as “Yes” and the “Chemical Stability, pH 7.4” value is listed as “Yes”.

As to `C[C@@H]1C[C@H]2[C@@H]3CCC4=CC(=O)C=C[C@]4(C)[C@@]3(F)[C@@H](O)C[C@]2(C)[C@@]1(O)C(=O)CO` [Dexamethasone, reference compound], the “GR Binding Data” value was 16% in data set [6] (@ 1 nM), 50% in data set [6] (@ 10 nM) and 93% in data set [6] (@100 nM).

`C[C@@H]1C[C@H]2[C@@H]3CCC4=C/C(=N/NC(=O)[C@@H](N)Cc5ccccc5)C=C[C@]4(C)[C@@]3(F)[C@@H](O)C[C@]2(C)[C@@]1(O)C(=O)CO` [Compound VIIA]: in data set [1], the “Chemical Stability, pH 4.5” value is listed as “Yes” and the “Chemical Stability, pH 7.4” value is listed as “Yes”. The compound further had a half-life at 5 μM in “in vitro [2]” (rat) of over 240 min. In the data set “in vitro [4]”, the Papp A→B at 2 h was found to be 0.17 ×10⁻⁶ cm/s and the basolateral-to-apical permeability (Papp B→A) at 2 h amounted to 11 ×10⁻⁶ cm/s. In “in vitro [5]”, this compound yielded an apical-to-basolateral permeability (Papp A→B) of 0.15 ×10⁻⁶ cm/s and a Papp B→A of 1.29 ×10⁻⁶ cm/s.

With `C[C@@H]1C[C@H]2[C@@H]3CCC4=C/C(=N\NC(=O)[C@H](N)Cc5ccccc5)C=C[C@]4(C)[C@@]3(F)[C@@H](O)C[C@]2(C)[C@@]1(O)C(=O)CO` [Compound VIIIB], the half-life at 5 μM in the data set “in vitro [2]” (rat) is over 240 min. Besides, the figures for the “GR Binding Data” value in data set [6] (@ 0.1 uM), in data set [6] (@ 1 uM) and in data set [6] (@ 10 uM) were 19%, 26% and 72%, respectively.

As for `CC(C)C(N)C(=O)N/N=C1\C=C[C@@]2(C)C(=C1)CC[C@H]1[C@@H]3C[C@@H](C)[C@](O)(C(=O)CO)[C@@]3(C)C[C@H](O)[C@@]12F` (single isomer, unassigned) [Compound VA], in data set [1], the “Chemical Stability, pH 4.5” value was “Yes” and the “Chemical Stability, pH 7.4” value is on record as “Yes”. This compound also showed a half-life at 5 μM in the data set “in vitro [2]” (rat) of over 240 min. In addition, the half-life at 1 uM in “in vitro [3]” (rat, liver microsomes, Rat liver microsomal stability (RLM) t½ min) was 44 min.

For `C[C@@H]1C[C@H]2[C@@H]3CCC4=CC(=O)C=C[C@]4(C)[C@@]3(F)[C@@H](O)C[C@]2(C)[C@@]1(O)/C(CO)=N\NC(=O)C(N)Cc1ccccc1` (single isomer, unassigned) [Compound IIIB], in data set [1], the “Chemical Stability, pH 4.5” value was “Yes”. Also, the “Chemical Stability, pH 7.4” value in data set [1] is “Yes”. Further, the “Human Plasma Stability t½ min” value in the data set “in vitro [2]” is over 240 min. Also, the “Rat liver microsomal stability” value in “in vitro [3]” turned out to be 81 min. Besides, the “GR Binding Data” value in data set [6] (@ 0.1 uM) worked out at 8%; in data set [6] (@ 1 uM) it was 8%; in data set [6] (@ 10 uM), 68%.

`C[C@@H]1C[C@H]2[C@@H]3CCC4=C/C(=N/NC(=S)[C@@H](N)Cc5ccccc5)C=C[C@]4(C)[C@@]3(F)[C@@H](O)C[C@]2(C)[C@@]1(O)C(=O)CO` [Compound X] displayed a half-life at 5 μM in “in vitro [2]” (rat) of 125 min. In “in vitro [4]”, this compound registered a Papp A→B at 2 h of 0.33 ×10⁻⁶ cm/s and a Papp B→A at 2 h of 4 ×10⁻⁶ cm/s. In the data set “in vitro [5]”, this compound had a Papp A→B of under 0.17 ×10⁻⁶ cm/s and a basolateral-to-apical permeability (Papp B→A) of 1.82 ×10⁻⁶ cm/s.

`C[C@@H]1C[C@H]2[C@@H]3CCC4=C/C(=N\NC(=O)[C@H](Cc5ccccc5)N(C)C)C=C[C@]4(C)[C@@]3(F)[C@@H](O)C[C@]2(C)[C@@]1(O)C(=O)CO` [Compound IXB]: the half-life at 5 μM in the data set “in vitro [2]” (rat) was over 240 min.

As for `CC(C)C(N)C(=O)N/N=C(/CO)[C@@]1(O)[C@H](C)C[C@H]2[C@@H]3CCC4=CC(=O)C=C[C@]4(C)[C@@]3(F)[C@@H](O)C[C@@]21C` (single isomer, unassigned) [Compound IVA], the “Chemical Stability, pH 4.5” value in data set [1] was “Yes”. For the same compound, the “Chemical Stability, pH 7.4” value in data set [1] was “Yes”. Further, the half-life at 5 μM in the data set “in vitro [2]” (human) and in “in vitro [2]” (rat) was over 240 min in each case. Also, in the data set “in vitro [3]”, the “Rat liver microsomal stability” value worked out at 35 min. The entries for the “GR Binding Data” value in data set [6] (@ 0.1 uM), in data set [6] (@ 1 uM) and in data set [6] (@ 10 uM) were 4%, 8% and 64%, respectively. The same compound displayed a Papp A→B at 2 h in “in vitro [4]” of 0.2 ×10⁻⁶ cm/s. In “in vitro [4]”, the Papp B→A at 2 h came to 4 ×10⁻⁶ cm/s.

Consider `CCC(=O)N/N=C1\C=C[C@@]2(C)C(=C1)CC[C@H]1[C@@H]3C[C@@H](C)[C@](O)(C(=O)CO)[C@@]3(C)C[C@H](O)[C@@]12F` [Compound I], for which, in data set [1], the “Chemical Stability, pH 4.5” value is listed as “Yes” and the “Chemical Stability, pH 7.4” value is listed as “Yes”. In “in vitro [2]” (human), this compound yielded a half-life at 5 μM of over 240 min.

`C[C@@H]1C[C@H]2[C@@H]3CCC4=C/C(=N/NC(=O)[C@H](Cc5ccccc5)N(C)C)C=C[C@]4(C)[C@@]3(F)[C@@H](O)C[C@]2(C)[C@@]1(O)C(=O)CO` [Compound IXA] showed a half-life at 5 μM in the data set “in vitro [2]” (rat) of over 240 min.
